{
  "source": "PubChem BioAssay (NCI)",
  "assay_in_all_cases": "DTP human tumour cell line panel, 48 h",
  "key": {"[1]": {"test_system": "786-0 renal"}, "[2]": {"test_system": "A549 NSCLC"}, "[3]": {"test_system": "ACHN renal"}, "[4]": {"test_system": "BT-549 breast"}, "[5]": {"test_system": "CAKI-1 renal"}, "[6]": {"test_system": "CCRF-CEM leukemia"}, "[7]": {"test_system": "COLO 205 colon"}, "[8]": {"test_system": "DU-145 prostate"}, "[9]": {"test_system": "HCT-116 colon"}, "[10]": {"test_system": "HCT-15 colon"}, "[11]": {"test_system": "HL-60(TB) leukemia"}, "[12]": {"test_system": "HOP-62 NSCLC"}, "[13]": {"test_system": "HS 578T breast"}, "[14]": {"test_system": "HT29 colon"}, "[15]": {"test_system": "K-562 leukemia"}, "[16]": {"test_system": "LOX IMVI melanoma"}, "[17]": {"test_system": "M14 melanoma"}, "[18]": {"test_system": "MALME-3M melanoma"}, "[19]": {"test_system": "MCF7 breast"}, "[20]": {"test_system": "MDA-MB-231 breast"}, "[21]": {"test_system": "MDA-MB-435"}, "[22]": {"test_system": "MOLT-4 leukemia"}, "[23]": {"test_system": "NCI-H460 lung"}, "[24]": {"test_system": "NCI-H522 lung"}, "[25]": {"test_system": "NCI/ADR-RES ovarian"}, "[26]": {"test_system": "OVCAR-4 ovarian"}, "[27]": {"test_system": "OVCAR-5 ovarian"}, "[28]": {"test_system": "OVCAR-8 ovarian"}, "[29]": {"test_system": "PC-3 prostate"}, "[30]": {"test_system": "RPMI-8226 leukemia"}, "[31]": {"test_system": "RXF 393 renal"}, "[32]": {"test_system": "SF-268 CNS"}, "[33]": {"test_system": "SF-539 CNS"}, "[34]": {"test_system": "SK-MEL-28 melanoma"}, "[35]": {"test_system": "SK-MEL-5 melanoma"}, "[36]": {"test_system": "SK-OV-3 ovarian"}, "[37]": {"test_system": "SN12C renal"}, "[38]": {"test_system": "SNB-19 CNS"}, "[39]": {"test_system": "SNB-75 CNS"}, "[40]": {"test_system": "SR leukemia"}, "[41]": {"test_system": "SW-620 colon"}, "[42]": {"test_system": "U251 CNS"}, "[43]": {"test_system": "UACC-257 melanoma"}, "[44]": {"test_system": "UACC-62 melanoma"}, "[45]": {"test_system": "UO-31 renal"}},
  "note": "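Exposure lasted 48 hours, with cells grown in 96-well plates and compounds tested at five concentrations. At the GI50, growth is halved. TGI: total growth inhibition.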",
  "data": [
    {"smiles": "O=C1c2c(c3c4cc(Br)ccc4[nH]c3c3ccc4ccccc4c23)C(=O)N1CCN1CCCCC1", "values": [
      {"measurement": "GI50", "setting": "[1]", "result": 1680, "unit": "nM"},
      {"measurement": "TGI", "setting": "[1]", "result": 3100, "unit": "nM"},
      {"measurement": "GI50", "setting": "[2]", "result": 1380, "unit": "nM"},
      {"measurement": "TGI", "setting": "[2]", "result": 2740, "unit": "nM"},
      {"measurement": "GI50", "setting": "[3]", "result": 783, "unit": "nM"},
      {"measurement": "TGI", "setting": "[3]", "result": 2030, "unit": "nM"},
      {"measurement": "GI50", "setting": "[4]", "result": 9500, "unit": "nM"},
      {"measurement": "TGI", "setting": "[4]", "result": "> 100000", "unit": "nM"},
      {"measurement": "GI50", "setting": "[5]", "result": 1290, "unit": "nM"},
      {"measurement": "TGI", "setting": "[5]", "result": 2790, "unit": "nM"},
      {"measurement": "GI50", "setting": "[6]", "result": 331, "unit": "nM"},
      {"measurement": "TGI", "setting": "[6]", "result": 2180, "unit": "nM"},
      {"measurement": "GI50", "setting": "[7]", "result": 1430, "unit": "nM"},
      {"measurement": "TGI", "setting": "[7]", "result": 3150, "unit": "nM"},
      {"measurement": "GI50", "setting": "[8]", "result": 1100, "unit": "nM"},
      {"measurement": "TGI", "setting": "[8]", "result": 2480, "unit": "nM"},
      {"measurement": "GI50", "setting": "[9]", "result": 1200, "unit": "nM"},
      {"measurement": "TGI", "setting": "[9]", "result": 2520, "unit": "nM"},
      {"measurement": "GI50", "setting": "[10]", "result": 1540, "unit": "nM"},
      {"measurement": "TGI", "setting": "[10]", "result": 3520, "unit": "nM"},
      {"measurement": "GI50", "setting": "[11]", "result": 1440, "unit": "nM"},
      {"measurement": "TGI", "setting": "[11]", "result": 6100, "unit": "nM"},
      {"measurement": "GI50", "setting": "[12]", "result": 689, "unit": "nM"},
      {"measurement": "TGI", "setting": "[12]", "result": 2030, "unit": "nM"},
      {"measurement": "GI50", "setting": "[13]", "result": 2040, "unit": "nM"},
      {"measurement": "TGI", "setting": "[13]", "result": 4890, "unit": "nM"},
      {"measurement": "GI50", "setting": "[14]", "result": 1230, "unit": "nM"},
      {"measurement": "TGI", "setting": "[14]", "result": 2560, "unit": "nM"},
      {"measurement": "GI50", "setting": "[15]", "result": 912, "unit": "nM"},
      {"measurement": "TGI", "setting": "[15]", "result": 3300, "unit": "nM"},
      {"measurement": "GI50", "setting": "[16]", "result": 1180, "unit": "nM"},
      {"measurement": "TGI", "setting": "[16]", "result": 2660, "unit": "nM"},
      {"measurement": "GI50", "setting": "[17]", "result": 1360, "unit": "nM"},
      {"measurement": "TGI", "setting": "[17]", "result": 2810, "unit": "nM"},
      {"measurement": "GI50", "setting": "[18]", "result": 1620, "unit": "nM"},
      {"measurement": "TGI", "setting": "[18]", "result": 3110, "unit": "nM"},
      {"measurement": "GI50", "setting": "[19]", "result": 178, "unit": "nM"},
      {"measurement": "TGI", "setting": "[19]", "result": 1770, "unit": "nM"},
      {"measurement": "GI50", "setting": "[20]", "result": 1570, "unit": "nM"},
      {"measurement": "TGI", "setting": "[20]", "result": 3220, "unit": "nM"},
      {"measurement": "GI50", "setting": "[21]", "result": 1610, "unit": "nM"},
      {"measurement": "TGI", "setting": "[21]", "result": 3110, "unit": "nM"},
      {"measurement": "GI50", "setting": "[22]", "result": 314, "unit": "nM"},
      {"measurement": "TGI", "setting": "[22]", "result": 2530, "unit": "nM"},
      {"measurement": "GI50", "setting": "[23]", "result": 390, "unit": "nM"},
      {"measurement": "TGI", "setting": "[23]", "result": 1520, "unit": "nM"},
      {"measurement": "GI50", "setting": "[24]", "result": 1230, "unit": "nM"},
      {"measurement": "TGI", "setting": "[24]", "result": 2690, "unit": "nM"},
      {"measurement": "GI50", "setting": "[25]", "result": 1280, "unit": "nM"},
      {"measurement": "TGI", "setting": "[25]", "result": 3340, "unit": "nM"},
      {"measurement": "GI50", "setting": "[26]", "result": 1800, "unit": "nM"},
      {"measurement": "TGI", "setting": "[26]", "result": 3680, "unit": "nM"},
      {"measurement": "GI50", "setting": "[27]", "result": 1850, "unit": "nM"},
      {"measurement": "TGI", "setting": "[27]", "result": 3390, "unit": "nM"},
      {"measurement": "GI50", "setting": "[28]", "result": 1210, "unit": "nM"},
      {"measurement": "TGI", "setting": "[28]", "result": 2590, "unit": "nM"},
      {"measurement": "GI50", "setting": "[29]", "result": 1470, "unit": "nM"},
      {"measurement": "TGI", "setting": "[29]", "result": 2930, "unit": "nM"},
      {"measurement": "GI50", "setting": "[30]", "result": 1630, "unit": "nM"},
      {"measurement": "TGI", "setting": "[30]", "result": 3940, "unit": "nM"},
      {"measurement": "GI50", "setting": "[31]", "result": 1480, "unit": "nM"},
      {"measurement": "TGI", "setting": "[31]", "result": 2930, "unit": "nM"},
      {"measurement": "GI50", "setting": "[32]", "result": 1440, "unit": "nM"},
      {"measurement": "TGI", "setting": "[32]", "result": 4080, "unit": "nM"},
      {"measurement": "GI50", "setting": "[33]", "result": 1570, "unit": "nM"},
      {"measurement": "TGI", "setting": "[33]", "result": 3080, "unit": "nM"},
      {"measurement": "GI50", "setting": "[34]", "result": 1770, "unit": "nM"},
      {"measurement": "TGI", "setting": "[34]", "result": 3290, "unit": "nM"},
      {"measurement": "GI50", "setting": "[35]", "result": 1770, "unit": "nM"},
      {"measurement": "TGI", "setting": "[35]", "result": 3270, "unit": "nM"},
      {"measurement": "GI50", "setting": "[36]", "result": 2660, "unit": "nM"},
      {"measurement": "TGI", "setting": "[36]", "result": "> 100000", "unit": "nM"},
      {"measurement": "GI50", "setting": "[37]", "result": 1440, "unit": "nM"},
      {"measurement": "TGI", "setting": "[37]", "result": 3160, "unit": "nM"},
      {"measurement": "GI50", "setting": "[38]", "result": 1720, "unit": "nM"},
      {"measurement": "TGI", "setting": "[38]", "result": "> 100000", "unit": "nM"},
      {"measurement": "GI50", "setting": "[39]", "result": 1520, "unit": "nM"},
      {"measurement": "TGI", "setting": "[39]", "result": 3440, "unit": "nM"},
      {"measurement": "GI50", "setting": "[40]", "result": 100, "unit": "nM"},
      {"measurement": "TGI", "setting": "[40]", "result": 1840, "unit": "nM"},
      {"measurement": "GI50", "setting": "[41]", "result": 1040, "unit": "nM"},
      {"measurement": "TGI", "setting": "[41]", "result": 2390, "unit": "nM"},
      {"measurement": "GI50", "setting": "[42]", "result": 884, "unit": "nM"},
      {"measurement": "TGI", "setting": "[42]", "result": 2130, "unit": "nM"},
      {"measurement": "GI50", "setting": "[43]", "result": 1690, "unit": "nM"},
      {"measurement": "TGI", "setting": "[43]", "result": 3200, "unit": "nM"},
      {"measurement": "GI50", "setting": "[44]", "result": 1970, "unit": "nM"},
      {"measurement": "TGI", "setting": "[44]", "result": 7300, "unit": "nM"},
      {"measurement": "GI50", "setting": "[45]", "result": 1500, "unit": "nM"},
      {"measurement": "TGI", "setting": "[45]", "result": 3000, "unit": "nM"}
    ]}
  ]
}
